Data reported in US12274704B2, “9,11-secosteroids and the use of 9,11-secosteroids in preparing pharmaceutical compositions for inhibiting inflammation” (Chang Gung University of Science and Technology, priority 2020, dated 2025).

How the values were obtained:
[1] = system: fMLF/CB-induced human neutrophils; test: Superoxide anion generation in fMLF/CB-induced human neutrophils; type: cell-based; conditions: for IC50: mean ± S.E.M. (n = 3 or 4); for inhibition at 10 µM / Superoxide Anion Inhibition (%): at 10 μM concentration, mean ± S.E.M.
Method: (§1) Blood samples were collected from healthy adult donors (20-32 years) via venipuncture in accordance with the standard protocol approved by the local institutional review board. Human neutrophils were isolated from peripheral blood through dextran sedimentation, centrifugation in a Ficoll-Hypaque gradient, and hypotonic lysis of red blood cells.
(§2) In accordance with the above-mentioned protocol, assays were performed to measure superoxide anion generation based on the superoxide dismutase-inhibitable reduction of ferricytochrome c; methoxy-succinyl-alanyl-alanyl-prolyl-valine-p-nitroanilide (MeO-Suc-Ala-Ala-Pro-Val-p-nitroanilide) was used as the enzyme substrate for the detection of elastase release.

[2] = system: fMLF/CB-induced human neutrophils; test: Elastase release in fMLF/CB-induced human neutrophils; type: cell-based; conditions: for IC50: mean ± S.E.M. (n = 3 or 4); for inhibition at 10 µM / Elastase Release Inhibition (%): at 10 μM concentration, mean ± S.E.M.
Method: as §1, §2

FPR1 receptor = target: T1, FPR1 receptor (Homo sapiens, UniProt P21462); test: FPR1 receptor binding assay (fNLFNYK, flow cytometry) in human neutrophils; conditions: 10 μM test substance, fNLFNYK 2 nM
T1 construct: endogenous in cells; host or cells: human neutrophils
T1 sequence (P21462 1-350): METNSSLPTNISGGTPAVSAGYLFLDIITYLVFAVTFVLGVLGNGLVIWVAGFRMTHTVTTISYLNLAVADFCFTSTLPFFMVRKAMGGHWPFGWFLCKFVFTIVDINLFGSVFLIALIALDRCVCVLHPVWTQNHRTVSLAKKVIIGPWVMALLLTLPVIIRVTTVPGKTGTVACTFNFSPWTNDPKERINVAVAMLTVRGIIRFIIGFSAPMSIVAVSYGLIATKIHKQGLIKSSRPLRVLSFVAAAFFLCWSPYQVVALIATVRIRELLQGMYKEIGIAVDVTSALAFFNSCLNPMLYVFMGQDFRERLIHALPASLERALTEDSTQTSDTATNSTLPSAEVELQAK
Method: Receptor binding assays of the present invention were performed via FACScan™ flow Cytometer analysis of N-formyl-Nle-Leu-Phe-Nle-Tyr-Lys-fluorescein (fNLFNYK; a fluorescent analog of N-formylmethionyl-leucyl-phenylalanine (fMLF)) binding to receptor of human neutrophils; The neutrophils were preincubated with test compounds at 4° C. for 5 min and then labelled with fNLFNYK for 30 min, then the cells were immediately analyzed via flow cytometry.
The receptor-binding assay is based on the binding between N-formyl-Nle-Leu-Phe-Nle-Tyr-Lys-fluorescein (fNLFNYK) and the […] receptor of human neutrophil.

With `C=C(CC[C@@H](C)C1CCC([C@H]2CC=C3C[C@@H](O)CC[C@]3(C)C2=O)[C@]1(C)CCO)C(C)C` (stereo partly drawn) [Compound 3, 8αH-3β,11-dihydroxy-24-methylene-9,11-secocholest-5-en-9-one] the IC50 ([1]; Homo sapiens, Neutrophil) was 1.63 to 8.07 µM, the inhibition at 10 µM ([1]; Neutrophil) was 90.5 ± 2.44% and the IC50 [1] was 1.97 ± 0.12 µM. For the same compound, the IC50 ([2]; Homo sapiens, Neutrophil) was 1.63 to 8.07 µM, the inhibition at 10 µM ([2]; Neutrophil) was 112 ± 5.01% and the IC50 [2] was 3.12 ± 0.07 µM.
With `C=C(CC[C@@H](C)C1CCC([C@@H]2CC=C3C[C@@H](O)CC[C@]3(C)C2=O)[C@]1(C)CCO)C(C)C` (stereo partly drawn) [Compound 4, 8βH-3β,11-dihydroxy-24-methylene-9,11-secocholest-5-en-9-one] the IC50 ([1]; Homo sapiens, Neutrophil) was 1.63 to 8.07 µM, the inhibition at 10 µM ([1]; Neutrophil) was 91.1 ± 4.51% and the IC50 [1] was 2.96 ± 0.91 µM. The IC50 ([2]; Homo sapiens, Neutrophil) was 1.63 to 8.07 µM, the inhibition at 10 µM ([2]; Neutrophil) was 93.7 ± 1.23% and the IC50 [2] was 1.63 ± 0.15 µM.
For `CC(C)[C@@H](C)CC[C@@H](C)[C@H]1CC[C@@H]([C@@H]2CC=C3C[C@@H](O)CC[C@]3(C)C2=O)[C@]1(C)CCO` [Compound 6, (24S)-3β,11-dihydroxy-24-methyl-9,11-secocholest-5-en-9-one], the “Superoxide Anion Inhibition (%)” value [1] was 60.51 ± 4.06 %, the IC50 [1] was 4.09 ± 0.5 µM and the “Elastase Release Inhibition (%)” value [2] was 25.38 ± 6.68 %. It also gave an IC50 [2] greater than 10 µM.
`CC(C)[C@@H](C)[C@@]1(C)C[C@@H]1[C@@H](C)[C@H]1CC[C@@H]([C@@H]2CC=C3C[C@@H](O)CC[C@]3(C)C2=O)[C@]1(C)CCO` [Compound 7, 3β,11-dihydroxy-9,11-secogorgost-5-en-9-one] was tested, and the “Superoxide Anion Inhibition (%)” value [1] was 10.29 ± 5.42 %, the IC50 [1] was greater than 10 µM and the “Elastase Release Inhibition (%)” value [2] was 18.87 ± 3.86 %. The IC50 [2] was greater than 10 µM.
In the case of leptosterol A [Compound 5], the “Superoxide Anion Inhibition (%)” value [1] is reported as 57.93 ± 2.30 %, the IC50 [1] is reported as 8.07 ± 0.53 µM and the “Elastase Release Inhibition (%)” value [2] is reported as 86.32 ± 2.91 %. For the same compound, the IC50 [2] was 4.73 ± 0.57 µM.
For sinleptosterol A [Compound 1], the “Superoxide Anion Inhibition (%)” value [1] was 64.76 ± 3.42 %, the IC50 [1] was 7.07 ± 0.52 µM and the “Elastase Release Inhibition (%)” value [2] was 65.04 ± 2.76 %. The IC50 [2] was 7.57 ± 0.4 µM and the “binding to FPR1 receptor (inhibition of fNLFNYK binding)” value (FPR1 receptor) was “low affinity”.
With sinleptosterol B [Compound 2] the “Superoxide Anion Inhibition (%)” value [1] was 76.30 ± 5.09 %, the IC50 [1] was 4.68 ± 0.57 µM and the “Elastase Release Inhibition (%)” value [2] was 105.09 ± 5.25 %. It also gave an IC50 [2] of 4.29 ± 0.25 µM.
